Earlier results on three compounds are cited in paper PMC11676667, “Pharmacokinetics of Oral Cannabinoid Δ8-Tetrahydrocannabivarin and Its Main Metabolites in Healthy Participants” (Pharmaceuticals, 2024).

By Tmax is commonly meant the time from dosing to the highest level.

The conditions of data set [1]: oral MCT oil formulation, healthy participants; cited from earlier work.
The next data set relates to CB1 receptor. The conditions noted are these: in vitro, cited from earlier work.
For data set [2] the following is noted: oral cannabis brownie; cited from earlier work.

Read-outs that look alike come from different tables or passages of the source.

In the case of `CCCc1cc(O)c2c(c1)OC(C)(C)[C@@H]1CC=C(C)C[C@@H]21` [Δ8-THCV, Δ8-tetrahydrocannabivarin], in data set [1], the safety and tolerability result is “safe and well tolerated”.

For `CCCc1cc(O)c2c(c1)OC(C)(C)[C@@H]1CCC(C)=C[C@@H]21` [Δ9-THCV, Δ9-tetrahydrocannabivarin], the “CB1 receptor antagonist potency relative to Δ8-THCV” value is given as “approximately two times more potent” in the data set on CB1 receptor (at low doses) and “two-fold more potent” in the data set with CB1 receptor.

Regarding `CCCc1cc(O)c2c(c1)OC(C)(C)[C@@H]1CCC(C(=O)O)=C[C@@H]21` [Δ9-THCV-COOH, 11-nor-9-carboxy-Δ9-THCV], the Tmax in data set [2] is given as 3 h.
